For 2 compounds, mode of inhibition, Vmax and IC50 results are on record in PMC11963559, “Identification of novel thiazole derivatives as flaviviral protease inhibitors effective against Dengue (DENV2) and Japanese encephalitis viruses” (Antimicrobial Agents and Chemotherapy, 2025).

Structures are written as SMILES.

The target of assay [1] is T1, DENV2 NS2B–NS3 protease (Dengue virus type 2, UniProt P14340).
T1 construct: Activity of recombinant dengue 2 virus NS3 protease in the presence of a truncated NS2B co-factor; The N-terminal domain of NS3 contains a highly conserved protease-active core; made in house; host or cells: Escherichia coli BL21(DE3)
The assay is described as follows: NS2B–NS3 protease steady-state kinetics and mode of inhibition. Type of assay: biochemical. The note with it: for mode of inhibition: both Km and Vmax reduced, Lineweaver–Burk plot; for Vmax: increasing substrate concentrations. Here is the method:
As 3au and 3aq compounds emerged as the two most promising candidates, we characterized their NS2B–NS3 inhibitory activity in greater detail using the previously mentioned DENV NS2B–NS3 protease assay (Fig. 3D) ([39], [41]). Experiments were performed to determine the kinetic parameters, inhibition constants, and inhibition mechanisms of these compounds. Enzymatic activity and corresponding reaction velocity were measured with various substrate concentrations either in presence of the vehicle control or two different concentrations of compounds. Several inhibitory mechanisms, including competitive, uncompetitive, and mixed/non-competitive mechanisms, were explored for each compound. […] The double reciprocal plot (Lineweaver–Burk plot) ( Fig. 5C and D) also validates the mode of enzymatic inhibition against DENV NS2B–NS3 protease.
(§1) The selected compounds were analyzed using in vitro protease assays performed in black 96-well plates. Standard reaction mixtures (60 µL) containing 50 mM Tris·HCl (pH 8.5), 1 mM CHAPS, 20% glycerol, 10 nM DENV2 NS2B–NS3 protease, 10 µM inhibitor (dissolved in DMSO) or DMSO, and 10.0 µM tetra-peptide substrate trifluoroacetate-Nle-Lys-Arg-Arg-AMC (ALFA Chemicals) were added to the reaction mixture and incubated for 1 h at room temperature. All assays were performed in triplicate. The release of free AMC was measured using a Varioskan LUX multimode microplate reader (Thermo Fisher Scientific) at excitation and emission wavelengths of 380 and 460 nm, respectively. Control fluorescence values obtained in the absence of inhibitors were considered 100%, and those obtained in the presence of inhibitors were calculated as the percentage of inhibition of the control using Microsoft Excel and plotted using Origin Pro 2023b. The background AMC in the absence of protease was subtracted before data analysis. Further, protease assay was done using different concentration of the compounds (1, 10, and 100 µM) to evaluate the IC50 for the in vitro assay. IC50 curves were fitted and determined by fitting the nonlinear equation in Origin2023b software. A similar approach was used to analyze the enzymatic kinetics of protease inhibition. The reaction progress was monitored by the release of free aminomethylcoumarin (AMC), as previously described. The substrate was incubated with or without the inhibitor in the aforementioned reaction buffer in the presence of varying concentrations of the substrate. The reactions were initiated by the addition of the NS2B–NS3 protease. Protease activity was monitored for 1 h based on the initial rate of increase in fluorescence intensity at 460 nm, with an excitation wavelength of 380 nm. The results were analyzed using Origin Pro 2023b and the Michaelis–Menten equation to obtain the apparent Michaelis–Menten constants and maximal velocities. All assays were performed in triplicate. For each tested compound, […] different concentrations of the inhibitor (0, 10, and 25 µM) were used at various concentrations (0–250 μM) of the substrate. The mechanism of inhibition was determined by observing the deviations in the apparent Km and Vmax values.

The target of assay [2] is T1, DENV2 NS2B–NS3 protease. Briefly: In vitro DENV2 NS2B/NS3pro inhibition assay using a FRET substrate. As to conditions: IC50 (µM), DENV protease inhibitory activity, 5 µM substrate, 10 nM NS2b-NS3pro, compounds at 1, 10 and 100 µM, 1 h at RT; compounds 3ao–3av. Type of assay: biochemical. Here is the method:
To assess the anti-DENV NS2B–NS3 activity of the compounds, we expressed the DENV2 NS2B–NS3 protease in BL21DE3 cells and subsequently purified it using Ni-NTA affinity chromatography, as outlined in Materials and Methods ([39], [40]). The protease activity assay was performed using different concentrations (1, 2.5, 5, 10, 25, 50, 75, and 100 µM) of a fluorogenic substrate (Abs-Nle-Lys-Arg-Arg-Ser-3-(NO2)Tyr) at various time points (5, 15, 30, 45, and 60 min), as described previously ([39], [41]). […] Therefore, all subsequent assays were conducted with a 1 h incubation time.
as §1, with “Standard reaction mixtures (60 µL) containing 50 mM Tris·HCl (pH 8.5), 1 mM CHAPS, 20% glycerol, 10 nM DENV2 NS2B–NS3 protease, 10 µM inhibitor (dissolved in DMSO) or DMSO, and 10.0 µM tetra-peptide substrate trifluoroacetate-Nle-Lys-Arg-Arg-AMC (ALFA Chemicals) were added to the reaction mixture and incubated for 1 h at room temperature.” left out

T1 sequence (P14340 1476-1653): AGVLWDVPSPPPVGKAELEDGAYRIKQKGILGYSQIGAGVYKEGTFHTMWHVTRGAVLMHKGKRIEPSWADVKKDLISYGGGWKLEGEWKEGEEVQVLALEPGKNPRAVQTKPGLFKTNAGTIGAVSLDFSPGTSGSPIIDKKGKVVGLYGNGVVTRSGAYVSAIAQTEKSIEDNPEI
T1 sequence (P14340 1398-1437): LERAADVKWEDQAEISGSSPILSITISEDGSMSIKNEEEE

For the compound `COc1ccc(-c2csc(N/N=C(\C)c3ccc(O)cc3)n2)cc1` [3aq], in assay [1], the mode of inhibition entry is given as “uncompetitive”. The Vmax in assay [1] (inhibitor 10 μM) was found to be 52.1 ± 3.3; in assay [1] (inhibitor 25 μM) it was 18.4 ± 0.9. For the same compound, half-maximal inhibition in assay [2] (IC50) was put at 15.1 µM.

For `COc1ccc(-c2csc(N/N=C(\C)c3cc(O)cc(O)c3)n2)cc1` [3au], the mode of inhibition entry in assay [1] is recorded as “uncompetitive”. The figures for the Vmax in assay [1] (inhibitor 10 μM) and in assay [1] (inhibitor 25 μM) were 38.9 ± 1.9 and 21.4 ± 0.7, respectively. Further, in assay [2], half-maximal inhibition (IC50) was put at 20.8 µM.
